Source: patent US10111431B2, “Application of biofilm formation inhibiting compounds enhances control of citrus canker” (priority 2013, dated 2018)
In brackets after ≈: the same amount, converted by molar mass.

What was measured:
[1] = test system: Xac 306 on grapefruit leaves; experiment: Plant test in greenhouse, spray inoculation of grapefruit leaves; type: in vivo, Xanthomonas citri subsp. citri
Protocol: The effect of selected biofilm inhibitors on Xac infection/virulence-was investigated using 20-week-old potted grapefruit (Citrus paradise cv. Duncan grapefruit) plants in a quarantine greenhouse at the Citrus Research and Education Center, Lake Alfred, Fla. Copper (CuSO4, 100 μg/mL), D-leucine (10 mM), IAN (100 μg/mL) and a combination of these compounds were individually prepared in 100 ml of SDW. Bacterial inoculum was prepared by growing Xac 306 on NA plates at 28° C. for 48 h, suspending in SDW, adjusting concentration to approximately OD600=0.3 (5×10^8 CFU/mL). The inoculation was performed by a spray method as described previously (Li and Wang, 2012) with modifications. Briefly, the abaxial surfaces of fully expanded, immature leaves of each plant were sprayed with the following treatments: SDW, Xac 306, and Xac 306 combined with CuSO4 (100 μg/mL), D-leucine (10 mM), IAN (100 μg/mL), or a combination of these compounds. Silwett-L77 (silicone-polyether copolymer, Fisher) was added to each treatment at a 0.03% (V/V) final concentration. After inoculation, the plants were covered with plastic bags for 24 h to maintain a high (>90%) relative humidity and then kept in a greenhouse (approximately 60% relative humidity) for symptom development. All inoculations included a minimum of three immature leaves at a similar developmental stage from each plant, and each treatment comprised four plants. The experiments were repeated three times independently. SDW was applied as a negative control, and Xac306 mixed with SDW as positive control. To determine whether the timing of application of biofilm inhibitors in relation to Xac306 affected canker symptom suppression, the biofilm inhibitors were inoculated on leaves 6 h prior to or after inoculation with Xac306.
For bacterial population assays, the leaves of grapefruit plants were inoculated as described above. Two leaf discs randomly selected from each of three inoculated leaves were cut with a cork borer (0.8 cm in diameter) and then ground in 1 mL of SDW. The suspensions were serially diluted and plated on NA plates containing rifamycin. After incubation at 28° C. for 48 h, bacterial colonies were counted and the number of CFU per square centimeter of leaf tissue was calculated. The assays were repeated three times independently.

[2] = test system: Xac 306 biofilm cells; experiment: Resistance of Xac biofilm cells to copper, cell viability assay in glass tubes; type: cell-based, Xanthomonas citri subsp. citri; settings: CuSO4 (1.0 mM) alone, 24 h
Protocol: The level of copper resistance of biofilms was evaluated using a cell viability assays. Briefly, Xac biofilms were prepared using NB with stationary incubation in glass tubes as described above. After 48 h-incubation, the cultures were removed and bacterial cells attached to the tubes were gently washed three times with SDW. One milliliter of fresh NB with CuSO4 (1.0 mM), D-leucine (10 mM) or IAN (100 μg/mL), or a combination of these compounds was added to each tube. NB alone was used as control. Tubes were kept at room temperature for 24 h and shaken vigorously for 5 min. The suspensions were diluted in 10-fold series, and 10 μL of each dilution spotted in triplicate on NA plate. Plates were incubated at 28° C. for 48 to 72 h prior to assessing bacterial growth. Colonies that grew near the dilution end-point were counted and bacterial populations in the initial suspensions prior to dilution were calculated. Each treatment compromises four replicates and the experiment repeated three times.

[3] = test system: X. citri subsp. citri strain 306; experiment: Determination of minimum inhibitory concentrations (MICs) in NB medium, 96-well plate; type: cell-based, Xanthomonas citri subsp. citri; settings: 48 h
Protocol: Xac strain 306 was grown in NB at 28° C. with shaking at 200 rpm for 7 h. The cultures were standardized to an OD600 of 0.03 (5×10^7 colony forming unit (CFU)/mL) in NB and then aliquoted into wells of a 96-well plate, 190 μL per well. The initial test concentrations of the compounds were diluted (1:20) in the culture (10 μl of compound in 190 μl of culture) and incubated at 28° C. under stationary conditions. The cultures were monitored at 24 and 48 h at OD600, and the lowest concentration resulting in no growth after 48 h compared to the control samples was defined as the MIC for Xac strain 306. All determinations were conducted in eight replicate wells and repeated three times.

[4] = test system: Xac306 biofilm formation; experiment: Static biofilm formation assay in 96-well polystyrene plates with crystal violet staining; type: cell-based, Xanthomonas citri subsp. citri; settings: 0 to 20 mM for D-leucine and D-serine; 0 to 150 μg/mL for IAN
Protocol: A static biofilm formation assay in 96-well polystyrene plates coupled with CV staining was performed as previously reported with modifications (Li and Wang, 2011). Briefly, a 96-well polystyrene plate (Nunclon surface, Nuncbrand, Denmark) was prepared with 170 μL NB plus 1.0% glucose per well. Aliquots of 20 μL each of the different concentrations of the tested compound were pipetted into eight wells containing 170 μL of NB plus 1.0% glucose. To each of these wells was added 10 μL of the standardized overnight Xac 306 culture (OD600=1.0). Control wells contained NB plus 1.0% glucose and SDW or 0.1% DMSO as a sterility control, or standardized overnight Xac 306 culture as a growth control. The plate was covered by a MicroWell lid (Nunclon), sealed with parafilm to prevent evaporation and incubated at 28° C. for 48 h without shaking. After incubation, the planktonic growth was measured at OD600. To quantify the amount of biofilms formed on the surfaces of the wells, the culture was removed from the wells. After drying, the wells were washed twice with 200 μl of SDW for 5 min, allowed to dry then 200 μl of 0.1% CV added. After 30 minutes, the CV was removed. The wells were washed with excess SDW to remove unbound CV and air dried in an inverted position for 2 h. Afterward, 200 μl of 95% ethanol was added to the wells and incubated for 30 min at room temperature to elute bound CV. The eluted CV was 2-fold diluted in double distilled water and the absorbance at 590 nm was measured. Each data point was averaged from eight replicate wells.

Row | SMILES | level of canker lesions on sprayed leaves ([1]; D-leucine 10 mM, IAN 100 μg/mL, CuSO4 100 μg/mL) | log reduction in the number of CFU compared to untreated control ([1]; grapefruit leaves, 7 to 28 days after inoculation) [log] | viable cells in biofilms [2] | MIC of CuSO4 in the presence of D-leucine and IAN ([3]; D-leucine 10 mM and IAN 100 μg/mL, planktonic cells, NB medium) [µM] | MIC of CuSO4 in the presence of D-leucine ([3]; D-leucine 10 mM, planktonic cells, NB medium) [µM] | MIC of CuSO4 in the presence of IAN ([3]; IAN 100 μg/mL, planktonic cells, NB medium) [µM] | MIC ([3]; compound alone, NB medium, 28° C., stationary, OD600) [µM] | MIC ([3]; Xanthomonas citri) [µM] | dose dependence of Xac306 biofilm decrease [4]
1 | O=S(=O)([O-])[O-].[Cu+2] [CuSO4] | less than that sprayed with the pathogen alone | ~1.0 | 3×10^7 CFU/mL | 250 | 250 | 250 | 500 | – | –
2 | N[C@H](CO)C(=O)O [D-serine] | – | – | – | – | – | – | – | 8000 (≈ 841 µg/mL) | decreased Xac306 biofilm in a dose-dependent manner
